In ChEMBL document CHEMBL1156584, “Metal-free artificial nucleases based on simple oxime and hydroxylamine scaffolds” (Bioorg Med Chem Lett, 2008):

Legend:
Escherichia coli [1] = experiment: Inhibition of Escherichia coli DH5alpha pBSK-2 DNA cleavage in HEPES buffer at pH 8.0 after 8 hrs by agarose gel electrophoresis in presence of DMSO; set-up: concentration or dose not given beside the values
Escherichia coli [2] = experiment: Inhibition of Escherichia coli DH5alpha pBSK-2 DNA cleavage in HEPES buffer at pH 8.0 after 8 hrs by agarose gel electrophoresis in presence of distamycin; set-up: concentration or dose not given beside the values
Escherichia coli [3] = experiment: Induction of Escherichia coli DH5alpha pBSK-2 DNA cleavage in PIPES buffer at pH 7.0 after 16 hrs by agarose gel electrophoresis
Escherichia coli [4] = experiment: Ratio of Kcat to Km for induction of Escherichia coli DH5alpha pBSK-2 DNA cleavage in PIPES buffer at pH 7.0 after 16 hrs by agarose gel electrophoresis
Escherichia coli [5] = experiment: Induction of Escherichia coli DH5alpha pBSK-2 DNA cleavage in CHES buffer at pH 9.0 after 16 hrs by agarose gel electrophoresis
Escherichia coli [6] = experiment: Inhibition of Escherichia coli DH5alpha pBSK-2 DNA cleavage in CHES buffer at pH 9.0 after 8 hrs by agarose gel electrophoresis in presence of glycerol; set-up: scale not given: the % may be the effect or the level left
Escherichia coli [7] = experiment: Ratio of Kcat to Km for induction of Escherichia coli DH5alpha pBSK-2 DNA cleavage in CHES buffer at pH 9.0 after 16 hrs by agarose gel electrophoresis
Escherichia coli [8] = experiment: Ratio of Kcat to Km for induction of Escherichia coli DH5alpha pBSK-2 DNA cleavage in HEPES buffer at pH 8.0 after 16 hrs by agarose gel electrophoresis
Escherichia coli [9] = experiment: Induction of Escherichia coli DH5alpha pBSK-2 DNA cleavage in HEPES buffer at pH 8.0 after 16 hrs by agarose gel electrophoresis

Row | Structure (SMILES) | Activity (Escherichia coli [1]) | Activity (Escherichia coli [2]) | Km (Escherichia coli [3]) | kcat (Escherichia coli [3]) | kcat/Km (Escherichia coli [4]) | Km (Escherichia coli [5]) | kcat (Escherichia coli [5]) | Activity (Escherichia coli [6]) | kcat/Km (Escherichia coli [7]) | kcat/Km (Escherichia coli [8]) | Km (Escherichia coli [9]) | kcat (Escherichia coli [9])
1 | CN(C)c1ccc(/C=N/O)cc1 | 8% | 2% | 140 µM | 141 ×10⁻³ /hr | 0.28 M⁻¹ s⁻¹ | – | – | – | – | – | – | –
2 | CN(C)c1ccc(CNO)cc1 | 12% | 14% | – | – | – | – | – | – | – | 0.158 M⁻¹ s⁻¹ | 140 µM | 79 ×10⁻³ /hr
3 | ONCc1ccc2c(c1)OCO2 | 16% | 20% | – | – | – | – | – | – | – | 0.869 M⁻¹ s⁻¹ | 60 µM | 187 ×10⁻³ /hr

Next, values leading:

Row | Activity (Escherichia coli [1]) | Activity (Escherichia coli [2]) | Km (Escherichia coli [3]) | kcat (Escherichia coli [3]) | kcat/Km (Escherichia coli [4]) | Km (Escherichia coli [5]) | kcat (Escherichia coli [5]) | Activity (Escherichia coli [6]) | kcat/Km (Escherichia coli [7]) | kcat/Km (Escherichia coli [8]) | Km (Escherichia coli [9]) | kcat (Escherichia coli [9]) | Structure (SMILES)
4 | 73% | 61% | – | – | – | 70 µM | 424 ×10⁻³ /hr | 71% | 1.68 M⁻¹ s⁻¹ | – | – | – | NOCc1ccccc1
5 | 14% | 10% | – | – | – | – | – | – | – | 0.398 M⁻¹ s⁻¹ | 110 µM | 157 ×10⁻³ /hr | ON(Cc1ccccc1)Cc1ccccc1
